Drawing on patent publication US11053196B2, “Substituted indoline derivatives as dengue viral replication inhibitors” (JANSSEN PHARMACEUTICALS, INC., priority 2017, dated 2021), this text covers EC50 and CC50 for ten compounds.

In one series the test system is DENV-2 strain 16681. Nature of the series: Tetravalent RT-qPCR assay, serotype 2. In kind it is cell-based. The settings on record: Dengue virus, DENV2, 72 h; RT-qPCR serotype 2 16681, Vero cells, day 3. As for the experimental part:
(§1) The antiviral activity of the compounds of the invention was tested against DENV-1 strain TC974#666 (NCPV), DENV-2 strain 16681, DENV-3 strain H87 (NCPV) and DENV-4 strain H241 (NCPV) in a RT-qPCR assay. Therefore, Vero cells were infected with either DENV-1, or -2, or -3, or -4 in the presence or absence of test compounds. At day 3 post-infection, the cells were lysed and cell lysates were used to prepare cDNA of both a viral target (the 3′UTR of DENV; Table 2) and a cellular reference gene (1-actin, Table 2). Subsequently, a duplex real time PCR was performed on a Lightcycler480 instrument. The generated Cp value is inversely proportional to the amount of RNA expression of these targets. Inhibition of DENV replication by a test compound results in a shift of Cp's for the 3′UTR gene. On the other hand, if a test compound is toxic to the cells, a similar effect on 1-actin expression will be observed. The comparative ΔΔCp method is used to calculate EC50, which is based on the relative gene expression of the target gene (3′UTR) normalized with the cellular housekeeping gene (1-actin). In addition, CC50 values are determined based on the C, values acquired for the housekeeping gene β-actin.
(§2) The culture medium consisted of minimal essential medium supplemented with 2% of heat-inactivated fetal calf serum, 0.04% gentamycin (50 mg/mL) and 2 mM of L-glutamine. Vero cells, obtained from ECACC, were suspended in culture medium and 75 μL/well was added in 96-well plates (10000 cells/well), which already contain the antiviral compounds. […] In addition, each plate contains wells which are assigned as virus controls (containing cells and virus in the absence of compound) and cell controls (containing cells in the absence of virus and compound). Once the cells were added in the plates, the plates were incubated in a fully humidified incubator (37° C., 5% CO2) until the next day. Dengue viruses serotype-1, 2, 3 and 4 were diluted in order to obtain a Cp of ˜22-24 in the assay. Therefore, 25 μL of virus suspension was added to all the wells containing test compound and to the wells assigned as virus control. In parallel, 25 μL of culture medium was added to the cell controls. Next, the plates were incubated for 3 days in a fully humidified incubator (37° C., 5% CO2). After 3 days, the supernatant was removed from the wells and the cells were washed twice with ice-cold PBS (−100 μL). The cell pellets within the 96-well plates were stored at −80° C. for at least 1 day. Next, RNA was extracted using the Cells-to-CT™ lysis kit, according to the manufacturer's guideline (Life Technologies). The cell lysates can be stored at −80° C. or immediately used in the reverse transcription step.
(§3) In preparation of the reverse transcription step, mix A (table 3A) was prepared and 7.57 μL/well was dispensed in a 96-well plate. After addition of 5 μL of the cell lysates, a five minute denaturation step at 75° C. was performed (table 3B). Afterwards, 7.43 μL of mix B was added (table 3C) and the reverse transcription step was initiated (table 3D) to generate cDNA.
(§4) Finally, a RT-qPCR mix was prepared, mix C (table 4A), and 22.02 μL/well was dispensed in 96-well LightCycler qPCR plates to which 3 μL of cDNA was added and the qPCR was performed according to the conditions in table 4B on a LightCycler 480.
(§5) Using the LightCycler software and an in-house LIMS system, dose response curves for each compound were calculated and the half maximal effective concentration (EC50) and the half maximal cytotoxic concentration (CC50) were determined (Tables 5-8).
For orientation: In qPCR the cycle at which signal appears reflects the starting amount.

The next series relates to DENV-1 strain TC974#666. Nature of the series: Tetravalent RT-qPCR assay, serotype 1. In kind it is cell-based. The settings on record: Dengue virus, DENV1, 72 h; RT-qPCR serotype 1 TC974#666, Vero cells, day 3. The procedure:
as §1, §2, §3, §4, §5

In the next series the test system is DENV-2 16681 strain. As to the kind of experiment: DENV-2 antiviral assay (eGFP-labeled virus in Vero cells). In kind it is cell-based, Dengue virus. The settings on record: DENV-2 16681 eGFP, MOI 0.5, 3 days. The procedure:
The antiviral activity of all the compounds of the invention was tested against the DENV-2 16681 strain which was labeled with enhanced green fluorescent protein (eGPF). The culture medium consists of minimal essential medium supplemented with 2% of heat-inactivated fetal calf serum, 0.04% gentamycin (50 mg/mL) and 2 mM of L-glutamine. Vero cells, obtained from ECACC, were suspended in culture medium and 25 μL was added to 384-well plates (2500 cells/well), which already contain the antiviral compounds. Typically, these plates contain a 5-fold serial dilution of 9 dilution steps of the test compound at 200 times the final concentration in 100% DMSO (200 nL). […] Finally, each plate contains wells which are assigned as virus controls (containing cells and virus in the absence of compound), cell controls (containing cells in the absence of virus and compound) and medium controls (containing medium in the absence of cells, virus and compounds). To the wells assigned as medium control, 25 μL of culture medium was added instead of Vero cells. Once the cells are added to the plates, the plates were incubated for 30 minutes at room temperature to allow the cells to distribute evenly within the wells. Next, the plates were incubated in a fully humidified incubator (37° C., 5% CO2) until the next day. Then, DENV-2 strain 16681, labeled with eGFP, was added at a multiplicity of infection (MOI) of 0.5.
Therefore, 15 μL of virus suspension was added to all the wells containing test compound and to the wells assigned as virus control. In parallel, 15 μL of culture medium was added to the medium and cell controls. Next, the plates were incubated for 3 days in a fully humidified incubator (37° C., 5% CO2). At the day of the read out, the eGFP fluorescence was measured using an automated fluorescence microscope at 488 nm (blue laser). Using an in-house LIMS system, inhibition dose response curves for each compound were calculated and the half maximal effective concentration (EC50) was determined. Therefore, the percent inhibition (I) for every test concentration is calculated using the following formula: I=100*(ST−SCC)/(SVC−SCC); ST, SCC and SVC are the amount of eGFP signal in the test compound, cell control and virus control wells, respectively. The EC50 represents the concentration of a compound at which the virus replication is inhibited with 50%, as measured by a 50% reduction of the eGFP fluorescent intensity compared to the virus control. The EC50 is calculated using linear interpolation (Table 1).

A further series has as its system DENV-3 strain H87. Nature of the series: Tetravalent RT-qPCR assay, serotype 3. The settings on record: Dengue virus, DENV3, 72 h; RT-qPCR serotype 3 H87, Vero cells, day 3. In kind it is cell-based. The procedure:
as §1, §2, §3, §4, §5

Another series in a line: in vitro. The settings on record: African green monkey.
The next series has as its system DENV-4 strain H241. Nature of the series: Tetravalent RT-qPCR assay, serotype 4. In kind it is cell-based. The following applies: Dengue virus, DENV4, 72 h; RT-qPCR serotype 4 H241, Vero cells, day 3. As for the experimental part:
as §1, §2, §3, §4, §5

The subject of the next series is Vero cells. The settings on record: African green monkey.
Series [1] is described as follows: Toxicity in DENV-2 antiviral assay plates (ATPlite cell viability). The settings on record: African green monkey, CC50, Vero cells, same plates as DENV-2 antiviral assay.

Regarding `[2H]C(Nc1cc(OC)cc(OCCCC(=O)O)c1)(C(=O)N1CCc2ccc(OC(F)(F)F)cc21)c1ccc(Cl)cc1` (single isomer, unassigned) [Compound 7A-D, 4-(3-((1-(4-chlorophenyl)-1-deuterio-2-oxo-2-(6-(trifluoromethoxy)indolin-1-yl)ethyl)amino)-5-methoxyphenoxy)butanoic acid], the EC50 in the series with DENV-2 strain 16681 was 0.16 nM; in the series on DENV-1 strain TC974#666, 0.24 nM; with DENV-2 16681 strain, 0.1 nM; in the series with DENV-3 strain H87, 2.4 nM; with DENV-4 strain H241, 13 nM. In “in vitro”, the CC50 amounted to 12000 nM.
For the compound `COc1cc(NC(C(=O)N2CCc3cc(F)c(OC(F)(F)F)cc32)c2ccc(Cl)cc2)cc(OCCCC(=O)O)c1` (single isomer, unassigned) [Compound 5B, 4-(3-((1-(4-chlorophenyl)-2-(5-fluoro-6-(trifluoromethoxy)indolin-1-yl)-2-oxoethyl)amino)-5-methoxyphenoxy)butanoic acid], the concentration for a half-maximal effect (EC50) in the series with DENV-2 strain 16681 came out at 0.29 nM; in the series on DENV-1 strain TC974#666 it was 0.33 nM; in the series on DENV-2 16681 strain, 0.12 nM; in the series on DENV-3 strain H87 it was 2.6 nM; with DENV-4 strain H241, 20 nM. For the same compound, in the series on Vero cells, the CC50 stood at 12000 nM.
For the compound `[2H]C(Nc1cc(OC)cc(OCCCC(=O)O)c1)(C(=O)N1CCc2ccc(OC(F)(F)F)cc21)c1ccc(Cl)cc1` (single isomer, unassigned) [Compound 7B-D, 4-(3-((1-(4-chlorophenyl)-1-deuterio-2-oxo-2-(6-(trifluoromethoxy)indolin-1-yl)ethyl)amino)-5-methoxyphenoxy)butanoic acid], the EC50 in the series on DENV-2 16681 strain stood at 16 nM. This compound also yielded a CC50 in the series with Vero cells of 9600 nM.
With `COc1cc(NC(C(=O)N2CCc3c(C)cc(C(F)(F)F)cc32)c2ccc(Cl)cc2)cc(OCCCC(=O)O)c1` (single isomer, unassigned) [Compound 2B, 4-(3-((1-(4-chlorophenyl)-2-(4-methyl-6-(trifluoromethyl)indolin-1-yl)-2-oxoethyl)amino)-5-methoxyphenoxy)butanoic acid], the EC50 amounted to 0.061 nM in the series on DENV-2 strain 16681; 0.091 nM with DENV-1 strain TC974#666; 0.078 nM in the series on DENV-2 16681 strain; 0.85 nM with DENV-3 strain H87; 10 nM with DENV-4 strain H241. This compound returned a CC50 in the series with Vero cells of 14000 nM.
As to `COc1cc(NC(C(=O)N2CCc3c(C)cc(OC(F)(F)F)cc32)c2ccc(Cl)cc2)cc(OCCCC(=O)O)c1` (single isomer, unassigned) [Compound 4A, 4-(3-((1-(4-chlorophenyl)-2-(4-methyl-6-(trifluoromethoxy)indolin-1-yl)-2-oxoethyl)amino)-5-methoxyphenoxy)butanoic acid], the concentration for a half-maximal effect (EC50) in the series with DENV-2 16681 strain was found to be 11 nM. For the same compound, the CC50 in series [1] was 13000 nM.
For the compound `COc1cc(NC(C(=O)N2CCc3ccc(S(F)(F)(F)(F)F)cc32)c2ccc(Cl)cc2)cc(OCCCC(=O)O)c1` (single isomer, unassigned) [Compound 1B, 4-(3-((1-(4-chlorophenyl)-2-oxo-2-(6-(pentafluoro-λ^6-sulfanyl)indolin-1-yl)ethyl)amino)-5-methoxyphenoxy)butanoic acid], the EC50 in the series on DENV-2 strain 16681 amounted to 0.18 nM; in the series with DENV-1 strain TC974#666, 0.096 nM; in the series on DENV-2 16681 strain it was 0.11 nM; with DENV-3 strain H87, 1.9 nM; with DENV-4 strain H241, 9.6 nM. This compound displayed a CC50 with Vero cells of 13000 nM.
With `COc1cc(NC(C(=O)N2CCc3cc(F)c(C(F)(F)F)cc32)c2ccc(Cl)cc2)cc(OCCCC(=O)O)c1` (single isomer, unassigned) [Compound 3A, 4-(3-((1-(4-chlorophenyl)-2-(5-fluoro-6-(trifluoromethyl)indolin-1-yl)-2-oxoethyl)amino)-5-methoxyphenoxy)butanoic acid], the EC50 in the series with DENV-2 16681 strain was found to be 36 nM. This compound yielded a CC50 in series [1] of 12000 nM.
For the compound `COc1cc(NC(C(=O)N2CCc3sc(C(F)(F)F)cc32)c2ccc(Cl)cc2)cc(OCCCC(=O)O)c1` (single isomer, unassigned) [Compound 10A, 4-(3-((1-(4-chlorophenyl)-2-oxo-2-(2-(trifluoromethyl)-5,6-dihydro-4H-thieno[3,2-b]pyrrol-4-yl)ethyl)amino)-5-methoxyphenoxy)butanoic acid], the EC50 with DENV-2 strain 16681 is 0.11 nM; with DENV-1 strain TC974#666 it was 0.22 nM; with DENV-2 16681 strain it was 0.3 nM; in the series on DENV-3 strain H87 it was 4.2 nM; with DENV-4 strain H241, 30 nM. Besides, the CC50 in the series “in vitro” was determined as 14000 nM.
`COc1cc(NC(C(=O)N2CCc3sc(C(F)(F)F)cc32)c2ccc(Cl)cc2)cc(OCCCC(=O)O)c1` (single isomer, unassigned) [Compound 10B, 4-(3-((1-(4-chlorophenyl)-2-oxo-2-(2-(trifluoromethyl)-5,6-dihydro-4H-thieno[3,2-b]pyrrol-4-yl)ethyl)amino)-5-methoxyphenoxy)butanoic acid]: the EC50 in the series with DENV-2 16681 strain is 37 nM. Moreover, in the series on Vero cells, the CC50 worked out at 12000 nM.
For the compound `COc1cc(NC(C(=O)N2CCc3c(C)cc(OC(F)(F)F)cc32)c2ccc(Cl)cc2)cc(OCCCC(=O)O)c1` (single isomer, unassigned) [Compound 4B, 4-(3-((1-(4-chlorophenyl)-2-(4-methyl-6-(trifluoromethoxy)indolin-1-yl)-2-oxoethyl)amino)-5-methoxyphenoxy)butanoic acid], the EC50 in the series on DENV-2 strain 16681 amounted to 0.067 nM; in the series with DENV-1 strain TC974#666, 0.11 nM; in the series on DENV-2 16681 strain, 0.057 nM; in the series on DENV-3 strain H87 it was 0.92 nM; in the series on DENV-4 strain H241 it was 12 nM. This compound yielded a CC50 in the series “in vitro” of 13000 nM.

Broadly, the EC50 is the midpoint of the concentration-response curve.
